Laboratory results from patent US11739098B2 (BRISTOL-MYERS SQUIBB COMPANY, priority 2017, dated 2023).

Legend:
Format in all cases: cell-based
human TLR7 = target: T1, human TLR7 (Homo sapiens, UniProt Q9NYK1); assay: TLR7 inhibition reporter assay (HEK-Blue cells, SEAP reporter, gardiquimod stimulation); conditions: HEK-Blue cells overexpressing human TLR7, SEAP reporter, gardiquimod 7.5 μM
T1 construct: host or cells: HEK-Blue cells (HEK293-derived reporter line)
T1 sequence (Q9NYK1 27-1049): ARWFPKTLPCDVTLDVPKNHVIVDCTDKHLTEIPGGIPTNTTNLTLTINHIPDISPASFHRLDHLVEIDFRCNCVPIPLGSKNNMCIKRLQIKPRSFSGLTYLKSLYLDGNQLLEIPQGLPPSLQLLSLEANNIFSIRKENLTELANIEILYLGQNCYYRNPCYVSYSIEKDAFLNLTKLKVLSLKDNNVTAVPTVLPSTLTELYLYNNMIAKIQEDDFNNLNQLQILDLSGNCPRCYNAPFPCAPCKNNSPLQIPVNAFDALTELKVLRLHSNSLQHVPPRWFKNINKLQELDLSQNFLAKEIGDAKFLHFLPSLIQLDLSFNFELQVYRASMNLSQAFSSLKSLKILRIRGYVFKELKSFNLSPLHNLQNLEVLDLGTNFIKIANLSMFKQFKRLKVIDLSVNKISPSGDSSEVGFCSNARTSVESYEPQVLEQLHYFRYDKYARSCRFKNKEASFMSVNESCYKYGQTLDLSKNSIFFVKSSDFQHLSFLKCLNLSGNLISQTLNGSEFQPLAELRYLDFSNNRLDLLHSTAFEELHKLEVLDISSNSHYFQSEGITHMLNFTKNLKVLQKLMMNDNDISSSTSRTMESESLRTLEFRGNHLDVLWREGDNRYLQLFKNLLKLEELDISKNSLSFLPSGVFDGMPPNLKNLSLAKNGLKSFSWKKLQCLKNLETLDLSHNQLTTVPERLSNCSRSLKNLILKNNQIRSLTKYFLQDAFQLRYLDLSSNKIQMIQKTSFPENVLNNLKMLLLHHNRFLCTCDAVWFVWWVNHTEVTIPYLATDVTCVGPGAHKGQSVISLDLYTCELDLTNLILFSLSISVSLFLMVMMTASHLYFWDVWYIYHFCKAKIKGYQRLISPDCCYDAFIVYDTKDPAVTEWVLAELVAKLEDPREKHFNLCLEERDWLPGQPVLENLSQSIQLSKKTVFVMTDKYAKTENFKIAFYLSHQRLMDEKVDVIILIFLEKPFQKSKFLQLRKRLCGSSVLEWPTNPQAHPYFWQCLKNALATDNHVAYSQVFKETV
Procedure, shortened: (§1)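 After 22 h at 37 °C, SEAP secretion was measured from human TLR7-, TLR8- or TLR9-expressing HEK-Blue reporter cells given compound (0.05 nM–50 μM) 30 min before agonist: 7.5 μM gardiquimod, 15.9 μM R848 or 5 nM ODN2006 respectively. Percent inhibition referenced to agonist-plus-DMSO and known-inhibitor wells.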

human TLR8 = target: T2, human TLR8 (Homo sapiens, UniProt Q9NR97); assay: TLR8 inhibition reporter assay (HEK-Blue cells, SEAP reporter, R848 stimulation); conditions: HEK-Blue cells overexpressing human TLR8, SEAP reporter, R848 15.9 μM
T2 construct: host or cells: HEK-Blue cells (HEK293-derived reporter line)
T2 sequence (Q9NR97 27-1041): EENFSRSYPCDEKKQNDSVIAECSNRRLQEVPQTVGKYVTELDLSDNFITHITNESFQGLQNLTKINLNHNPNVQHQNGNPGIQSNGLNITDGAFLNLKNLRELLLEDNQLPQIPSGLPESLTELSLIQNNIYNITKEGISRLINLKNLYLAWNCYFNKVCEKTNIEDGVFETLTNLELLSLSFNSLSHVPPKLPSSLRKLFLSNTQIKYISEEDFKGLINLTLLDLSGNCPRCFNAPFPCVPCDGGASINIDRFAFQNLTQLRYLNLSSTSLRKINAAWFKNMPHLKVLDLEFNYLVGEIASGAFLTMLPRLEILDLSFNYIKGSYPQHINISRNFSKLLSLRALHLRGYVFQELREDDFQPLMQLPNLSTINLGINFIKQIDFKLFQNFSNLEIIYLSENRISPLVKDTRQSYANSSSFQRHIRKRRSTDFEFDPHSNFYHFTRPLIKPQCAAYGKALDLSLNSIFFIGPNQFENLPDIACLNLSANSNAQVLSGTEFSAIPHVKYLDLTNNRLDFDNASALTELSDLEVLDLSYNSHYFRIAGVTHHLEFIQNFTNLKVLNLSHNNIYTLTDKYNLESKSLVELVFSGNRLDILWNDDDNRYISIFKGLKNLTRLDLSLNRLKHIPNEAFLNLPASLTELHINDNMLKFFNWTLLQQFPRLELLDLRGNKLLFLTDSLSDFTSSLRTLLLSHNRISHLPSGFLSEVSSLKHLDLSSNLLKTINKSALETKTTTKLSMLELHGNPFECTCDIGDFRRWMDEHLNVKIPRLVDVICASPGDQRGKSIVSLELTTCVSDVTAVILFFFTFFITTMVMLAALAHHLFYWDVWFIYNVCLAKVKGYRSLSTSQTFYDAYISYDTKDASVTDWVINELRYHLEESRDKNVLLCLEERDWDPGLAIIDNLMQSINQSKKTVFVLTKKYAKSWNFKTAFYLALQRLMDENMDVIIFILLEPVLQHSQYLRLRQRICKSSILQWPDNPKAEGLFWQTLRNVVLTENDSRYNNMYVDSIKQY
Procedure, shortened: as §1

human TLR9 = target: T3, human TLR9 (Homo sapiens, UniProt Q9NR96); assay: TLR9 inhibition reporter assay (HEK-Blue cells, SEAP reporter, ODN2006 stimulation); conditions: HEK-Blue cells overexpressing human TLR9, SEAP reporter, ODN2006 5 nM
T3 construct: host or cells: HEK-Blue cells (HEK293-derived reporter line)
T3 sequence (Q9NR96 26-1032): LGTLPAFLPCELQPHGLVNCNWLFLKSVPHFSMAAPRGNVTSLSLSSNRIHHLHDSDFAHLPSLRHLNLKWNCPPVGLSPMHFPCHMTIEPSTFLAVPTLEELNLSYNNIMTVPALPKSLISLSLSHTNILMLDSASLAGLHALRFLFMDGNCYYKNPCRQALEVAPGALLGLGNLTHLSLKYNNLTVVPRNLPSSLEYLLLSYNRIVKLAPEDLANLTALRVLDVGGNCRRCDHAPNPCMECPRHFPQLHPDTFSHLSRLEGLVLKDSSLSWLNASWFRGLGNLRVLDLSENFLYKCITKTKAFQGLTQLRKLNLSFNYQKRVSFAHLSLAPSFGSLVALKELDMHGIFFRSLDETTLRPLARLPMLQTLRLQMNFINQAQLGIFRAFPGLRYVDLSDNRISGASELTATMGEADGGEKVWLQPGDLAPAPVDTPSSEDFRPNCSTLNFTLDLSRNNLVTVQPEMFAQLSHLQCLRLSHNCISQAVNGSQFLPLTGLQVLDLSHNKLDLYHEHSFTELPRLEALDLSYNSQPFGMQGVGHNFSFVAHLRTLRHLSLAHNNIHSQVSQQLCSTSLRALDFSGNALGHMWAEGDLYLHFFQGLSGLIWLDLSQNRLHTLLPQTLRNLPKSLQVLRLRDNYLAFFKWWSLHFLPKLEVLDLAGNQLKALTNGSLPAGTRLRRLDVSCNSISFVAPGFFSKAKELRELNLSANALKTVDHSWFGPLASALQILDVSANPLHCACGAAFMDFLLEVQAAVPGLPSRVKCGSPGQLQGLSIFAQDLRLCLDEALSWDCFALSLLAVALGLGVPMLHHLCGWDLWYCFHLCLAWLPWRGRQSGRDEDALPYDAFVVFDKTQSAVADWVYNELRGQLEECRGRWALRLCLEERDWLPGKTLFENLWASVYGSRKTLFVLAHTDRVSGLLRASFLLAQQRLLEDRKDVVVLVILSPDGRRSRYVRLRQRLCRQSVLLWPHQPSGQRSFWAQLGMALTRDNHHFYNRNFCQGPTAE
Procedure, shortened: as §1

Compound	IC50 (human TLR7) [nM]	IC50 (human TLR8) [nM]	IC50 (human TLR9) [nM]
CCc1c(-c2cccc3[nH]ncc23)[nH]c2ccc(C3CCN(CC(=O)N(C)C)CC3)cc12 [Example 389, 2-(4-(3-ethyl-2-(1H-indazol-4-yl)-1H-indol-5-yl)piperidin-1-yl)-N,N-dimethylacetamide]	1000 to 50000	1000 to 50000	1000 to 50000
CC(C)c1c(-c2ccn3cnnc3c2)[nH]c2ccc(C3CCN(C4CCOCC4)CC3)cc12 [Example 697, 7-(3-isopropyl-5-(1-(tetrahydro-2H-pyran-4-yl)piperidin-4-yl)-1H-indol-2-yl)-[1,2,4]triazolo[4,3-a]pyridine]	100 to 1000	100 to 1000	100 to 1000
CNC(=O)CN1CCC(c2ccc3[nH]c(-c4cc(C)c5c(cnn5C)c4)c(C(C)C)c3c2)CC1 [Example 364, 2-(4-(2-(1,7-dimethyl-1H-indazol-5-yl)-3-isopropyl-1H-indol-5-yl)piperidin-1-yl)-N-methylacetamide]	100 to 1000	> 3130	1000 to 50000
Cc1nc2cc(-c3[nH]c4ccc(C5CCNCC5)cc4c3C(C)C)ccn2n1 [Example 156, 7-(3-isopropyl-5-(piperidin-4-yl)-1H-indol-2-yl)-2-methyl-[1,2,4] triazolo[1,5-a]pyridine]	< 100	100 to 1000	100 to 1000
CC(C)c1c(-c2ccc3nccn3c2)[nH]c2ccc(C3CCNCC3)cc12 [Example 188, 6-(3-isopropyl-5-(piperidin-4-yl)-1H-indol-2-yl)imidazo[1,2-a]pyridine]	< 100	100 to 1000	100 to 1000
Cc1cc(-c2[nH]c3ccc(C4CCN(C5CCOCC5)CC4)cc3c2C(C)C)cc2cccnc12 [Example 703, 6-(3-isopropyl-5-(1-(tetrahydro-2H-pyran-4-yl)piperidin-4-yl)-1H-indol-2-yl)-8-methylquinoline]	< 100	< 100	1000 to 50000
CNC(=O)CN1CCC(c2ccc3[nH]c(-c4cc(F)c5nccn5c4)c(C(C)C)c3c2)CC1 [Example 410, 2-(4-(2-(8-fluoroimidazo[1,2-a]pyridin-6-yl)-3-isopropyl-1H-indol-5-yl)piperidin-1-yl)-N-methylacetamide]	< 100	100 to 1000	1000 to 50000
COc1cc(-c2[nH]c3ccc(C4CCN(C(=O)CN(C)C)CC4)cc3c2C(C)C)cc2nccn12 [Example 501, 2-(dimethylamino)-1-(4-(3-isopropyl-2-(5-methoxyimidazo[1,2-a]pyridin-7-yl)-1H-indol-5-yl)piperidin-1-yl)ethan-1-one]	100 to 1000	100 to 1000	100 to 1000

Further lines, results first:

IC50 (human TLR7) [nM]	IC50 (human TLR8) [nM]	IC50 (human TLR9) [nM]	Compound
< 100	< 100	1000 to 50000	CC(C)c1c(-c2cc(Cl)c3ncccc3c2)[nH]c2ccc(C3CCN(CC(C)(C)O)CC3)cc12 [Example 767, 1-(4-(2-(8-chloroquinolin-6-yl)-3-isopropyl-1H-indol-5-yl)piperidin-1-yl)-2-methylpropan-2-ol]
< 100	< 100	1000 to 50000	COc1c(C)c(-c2[nH]c3ccc(C4CCN(C(=O)CN(C)C)CC4)cc3c2C(C)C)nn2ncnc12 [Example 451, 2-(dimethylamino)-1-(4-(3-isopropyl-2-(8-methoxy-7-methyl-[1,2,4]triazolo[1,5-b]pyridazin-6-yl)-1H-indol-5-yl)piperidin-1-yl)ethan-1-one]
< 100	100 to 1000	1000 to 50000	CN(C)C(=O)CN1CCC(c2ccc3[nH]c(-c4ccn5ccnc5c4)c(CC(F)F)c3c2)CC1 [Example 445, 2-(4-(3-(2,2-difluoroethyl)-2-(imidazo[1,2-a]pyridin-7-yl)-1H-indol-5-yl)piperidin-1-yl)-N,N-dimethylacetamide]
< 100	< 100	1000 to 50000	Cc1cc(-c2[nH]c3ccc(C4CCNCC4)cc3c2C(C)C)nn2ncnc12 [Example 30, 6-(3-isopropyl-5-(piperidin-4-yl)-1H-indol-2-yl)-8-methyl-[1,2,4]triazolo[1,5-b]pyridazine]
< 100	< 100	1000 to 50000	Cc1cc(-c2[nH]c3ccc(C4CCN(C(=O)CN(C)C)CC4)cc3c2C(C)C)cc2ccnn12 [Example 570, 2-(dimethylamino)-1-(4-(3-isopropyl-2-(7-methylpyrazolo[1,5-a]pyridin-5-yl)-1H-indol-5-yl)piperidin-1-yl)ethan-1-one]
< 100	< 100	1000 to 50000	Cc1cc(-c2[nH]c3ccc(C4CCN(C(=O)CCN(C)C)CC4)cc3c2C(C)C)cn2nnnc12 [Example 620, 3-(dimethylamino)-1-(4-(3-isopropyl-2-(8-methyltetrazolo[1,5-a]pyridin-6-yl)-1H-indol-5-yl)piperidin-1-yl)propan-1-one]
